Here are results for 4 molecules from publication PMC7555330, “In Silico Identification and Biological Evaluation of Antioxidant Food Components Endowed with Human Carbonic Anhydrase IX and XII Inhibition” (Antioxidants, 2020).

Where two headings read alike, the source gives them in different places. Bounds are passed on as bounds.

Data set [1] deals with T1, hCA IX (Homo sapiens, UniProt Q16790).
T1 construct: made in house
The conditions noted are these: literature statement; cited from earlier work.

In data set [2] the target is T2, hCA XII (Homo sapiens, UniProt O43570).
T2 construct: made in house
T2 sequence (O43570 25-354): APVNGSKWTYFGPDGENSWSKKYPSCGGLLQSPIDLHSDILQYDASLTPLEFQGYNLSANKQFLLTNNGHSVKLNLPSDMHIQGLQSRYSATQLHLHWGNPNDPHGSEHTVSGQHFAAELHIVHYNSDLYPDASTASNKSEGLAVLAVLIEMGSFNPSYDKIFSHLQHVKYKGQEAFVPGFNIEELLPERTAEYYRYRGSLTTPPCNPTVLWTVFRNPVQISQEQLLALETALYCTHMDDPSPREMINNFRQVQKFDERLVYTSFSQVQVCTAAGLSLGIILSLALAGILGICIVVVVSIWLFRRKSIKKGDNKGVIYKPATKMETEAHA
The conditions noted are these: literature statement; cited from earlier work.

The target of data set [3] is T3, hCA I (Homo sapiens, UniProt P00915).
T3 construct: made in house
T3 sequence (P00915 whole entry): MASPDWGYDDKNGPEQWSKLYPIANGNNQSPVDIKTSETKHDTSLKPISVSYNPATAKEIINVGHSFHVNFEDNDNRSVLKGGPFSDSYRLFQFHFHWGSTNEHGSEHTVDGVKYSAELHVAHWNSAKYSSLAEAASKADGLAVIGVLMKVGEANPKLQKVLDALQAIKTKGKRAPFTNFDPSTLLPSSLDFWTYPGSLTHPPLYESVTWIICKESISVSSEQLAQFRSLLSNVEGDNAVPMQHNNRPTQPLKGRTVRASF
In words: stopped-flow CO2 hydrase assay, hCA I. The class given is biochemical. Here is the method: (§1) The CA-catalyzed CO2 hydration activity of the compounds reported was assayed by means of the Applied Photophysics stopped-flow instrument. Phenol red was used as a pH indicator at a concentration of 0.2 mM, the instrument was set at working maximum absorbance maximum of 557 nm, the solutions were buffered at pH 7.5 with 20 mM HEPES, and 20 mM Na2SO4 was added for keeping constant the ionic strength, to follow the initial rates of the enzyme-catalyzed CO2 hydration reaction for a period of 10–100 s. The CO2 concentrations for the determination of the kinetic parameters and inhibition constants ranged from 1.7 to 17 mM.
(§2) The uncatalyzed rates were determined in the same experimental manner and subtracted from the total observed values. Stock solutions of the potential inhibitor (0.1 mM) were prepared by using distilled deionized water, and the dilutions with the assay buffer were prepared up to 0.01 nM. The solutions containing the inhibitor and the enzyme were preincubated for 30 min at r.t. prior to performing the assay, in order to form the E−I adduct. The inhibition constants (KIS) were obtained by the nonlinear least squares methods using PRISM 3 and the Cheng−Prusoff equation, as reported earlier, and represent the mean from three different experimental determinations. All CA isoforms herein reported were recombinant and obtained in-house.

In data set [4] the target is T4, hCA II (Homo sapiens, UniProt P00918).
T4 construct: made in house
In words: stopped-flow CO2 hydrase assay, hCA II. The class given is biochemical. As for the experimental part: as §1, §2

Data set [5] deals with T1, hCA IX. In words: stopped-flow CO2 hydrase assay, hCA IX. In kind it is biochemical. Conditions: mean of three assays, errors ±5–10%. Here is the method: as §1, §2
Data set [6] concerns the target T2, hCA XII. In words: stopped-flow CO2 hydrase assay, hCA XII. The conditions noted are these: for selectivity index (SI; KI hCA IX/KI hCA XII): hCA XII over hCA IX. The class given is biochemical. Here is the method:
as §1, §2

A further data set can be described thus: MTT cell viability assay. The class given is cell-based. Conditions: human, Caco-2 cells; Caco-2, 10 µM, 72 h after treatment, percentage of control. As for the experimental part:
The human colorectal cancer cells Caco-2 were maintained in Dulbecco’s Modified Eagle Medium (DMEM, Sigma-Aldrich, St. Louis, MO, USA) integrated with 10% of FBS (Fetal Bovine Serum, Sigma-Aldrich, St. Louis, MO, USA) and 1% P/S (Penicillin, Streptomycin, Sigma-Aldrich, St. Louis, MO, USA). Cells’ culture conditions were 5% CO2 incubator at 37 °C. Cell viability was assessed through an MTT assay: 1 × 10^4 cells/well were plated in a 96-well microplate and, two hours later, treated with 6, 12, and 14 (the latter dissolved in DMSO) at 10 µM concentration. After 24, 48, and 72 h, 20 µL of 3-(4,5-dimethylthiazol-2-yl)-2,5 diphenyl tetrazolium (MTT detection reagent, Sigma-Aldrich, St. Louis, MO, USA) was added on the plate at the final concentration of […], and incubated for two more hours. Culture agent was removed and 200 µL of isopropanol (0.04 M HCl) were added to solubilizeformazan crystals. Absorbance was measured at 560 nm by the Victor 3 reader.
For orientation: Tetrazolium assays rely on reduction of a dye to a coloured formazan, in cell work by metabolically active cells.

Data set [7] concerns the target T3, hCA I. The arrangement: method as in PMID 26498393. Conditions: stopped-flow CO2 hydrase assay; cited from earlier work.
The target of data set [8] is T4, hCA II. The arrangement: method as in PMID 26498393. Conditions: stopped-flow CO2 hydrase assay; cited from earlier work.

`COc1ccccc1O` [Guaiacol]: the “Ki hCA IX” value on hCA IX [1] was “low micromolar range”. Besides, at hCA XII [2], the “Ki hCA XII” value is “low micromolar range”.

On to `COc1cc([C@@H]2Oc3c(OC)cc(/C=C/CO)cc3[C@H]2CO)ccc1O` [compound 6, (-)-dehydrodiconiferyl alcohol], for which the inhibition constant Ki (in general, a dissociation constant, usually derived from enzyme kinetics or from competition with a known ligand) on hCA I [3] (stopped-flow CO2 hydrase assay, mean of three assays, errors ±5–10%, read-out: KI hCA I) was greater than 100000 nM; on hCA II [4] (stopped-flow CO2 hydrase assay, mean of three assays, errors ±5–10%, read-out: KI hCA II) it was greater than 100000 nM; at hCA IX [5], 2590 nM; on hCA XII [6] (stopped-flow CO2 hydrase assay, mean of three assays, errors ±5–10%, read-out: KI hCA XII), 96 nM. The “selectivity index (SI; KI hCA IX/KI hCA XII)” value on hCA XII [6] is recorded as 27.0 fold. Besides, the viability – broadly, a read-out of living cells in per cent, often relative to untreated cells – at 72 h, 10 µM in the data set “MTT cell viability assay” was roughly 70%.

Consider `COc1cc(/C=C/CO)cc(OC)c1O[C@@H]1O[C@H](CO)[C@@H](O)[C@H](O)[C@H]1O` [compound 14, syringin], for which the Ki is greater than 100000 nM at hCA I [3], greater than 100000 nM at hCA II [4], 320 nM at hCA IX [5] and 92 nM on hCA XII [6]. Further, the “selectivity index (SI; KI hCA IX/KI hCA XII)” value at hCA XII [6] turned out to be 3.5 fold. Further, the viability at 72 h, 10 µM in “MTT cell viability assay” was roughly 50%.

Regarding `O=C(/C=C/c1ccc(O)c2c1[C@H](C(=O)O)[C@@H](c1ccc(O)c(O)c1)O2)O[C@H](Cc1ccc(O)c(O)c1)C(=O)O` [compound 12, lithospermic acid], the viability at 72 h, 10 µM in the data set “MTT cell viability assay” is roughly 50%. Further, the Ki on hCA I [7] and at hCA II [8] was greater than 100000 nM throughout.
